Measurements from ChEMBL document CHEMBL1135260 (Bioorg Med Chem Lett, 2002).

target: T1, Neuropeptide Y receptor type 5 (Homo sapiens, UniProt Q15761); test: Concentration that inhibited 50% of binding of 125 I -PYY ligand to human Neuropeptide Y receptor type 5; assay type: single protein
T1 sequence (Q15761 whole entry): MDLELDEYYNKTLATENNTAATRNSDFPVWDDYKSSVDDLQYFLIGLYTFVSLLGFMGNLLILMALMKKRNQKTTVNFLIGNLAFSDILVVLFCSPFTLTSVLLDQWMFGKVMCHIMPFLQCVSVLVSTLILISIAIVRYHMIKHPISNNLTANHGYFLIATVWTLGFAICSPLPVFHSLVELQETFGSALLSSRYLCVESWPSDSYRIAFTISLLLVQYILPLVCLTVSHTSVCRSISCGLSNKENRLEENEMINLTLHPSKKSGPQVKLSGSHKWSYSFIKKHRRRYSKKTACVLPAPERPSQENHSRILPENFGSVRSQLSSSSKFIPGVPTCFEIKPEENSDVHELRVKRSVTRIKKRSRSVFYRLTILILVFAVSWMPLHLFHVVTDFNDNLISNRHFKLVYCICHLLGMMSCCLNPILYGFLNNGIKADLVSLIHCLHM

IC50 [nM]	Compound
570	c1ccc2c(c1)CCCc1[nH]c(-c3c[nH]cn3)nc1-2
52	COc1ccc2c(c1)-c1nc(-c3ccccc3)[nH]c1CC2
6.4	Fc1ccc2c(c1)-c1nc(-c3cccnc3)[nH]c1CCC2
110	COc1ccc2c(c1)-c1nc(-c3ccccn3)[nH]c1CCC2

Continued, molecule first:

Compound	IC50 [nM]
c1ccc(-c2nc3c([nH]2)-c2ccccc2CCC3)nc1	110
c1ccc(-c2nc3c([nH]2)CCOc2ccccc2-3)cc1	6100
Cc1[nH]c(-c2ccccc2)nc1-c1cccnc1 [FR-79620]	427
